The values that follow come from patent US20230107216A1, “PANTETHEINE DERIVATIVES AND USES THEREOF” (Comet Therapeutics, Inc., priority 2018, published 2023).

Like-named read-outs stand apart in the source and are kept apart here.

Assay [1] relates to Coronary artery smooth muscle cells (CASM3C system). The experiment in a line: BioMAP CASM3C system (IL-1β, TNFα, IFNγ). The format is cell-based, human. The following applies: 10 uM.
In assay [2] the test system is Peripheral blood mononuclear cells co-cultured with B-cells (BT system). The experiment in a line: cells. As to conditions: Homo sapiens, 72 h, read-out: % increase in sIL-6.
Assay [3] has as its system Dermal fibroblasts (HDF3CGF system). The assay is described as follows: BioMAP HDF3CGF system (IL-1β, TNFα, IFNγ, EGF, bFGF, PDGF-BB). Type of assay: cell-based, human.
In assay [4] the test system is HepG2 cells. The experiment in a line: Glucose uptake (Glucose Uptake-Glo). The format is cell-based. The following applies: Homo sapiens, 50 uM, read-out: % increase in Glucose Uptake.
In assay [5] the test system is Peripheral blood mononuclear cells co-cultured with venular endothelial cells (HUVEC) (LPS system). The experiment in a line: BioMAP LPS system. Type of assay: cell-based, human. The following applies: procedure of Example 827.
Assay [6] concerns Peripheral blood mononuclear cells co-cultured with B-cells (BT system). As to conditions: 1 uM; procedure of Example 829.
Assay [7] relates to Venular Endothelial cells (HUVEC) (4H system). The experiment in a line: BioMAP 4H system (IL-4 and histamine). The following applies: Homo sapiens, HUVEC, 24 h; 1 uM; procedure of Example 826; read-out: % decrease in VEGFRII. The format is cell-based, human.
Assay [8] has as its system Bronchial epithelial cells co-cultured with dermal fibroblast (BF4T system). The experiment in a line: BioMAP BF4T system (TNFα and IL-4). The format is cell-based, human. As to conditions: Homo sapiens, 24 h; 10 uM; procedure of Example 830; read-out: % increase in VCAM-1.
Assay [9] relates to Pkd1−/− mouse inner medullary collecting duct cells (mIMRFNPKD 5E4). The experiment in a line: mPKD 3D cyst swelling assay (forskolin-induced). The format is cell-based. As to conditions: after 72 hours of forskolin exposure. As for the experimental part:
Cell model and control compounds. mIMCD3 WT cells were obtained via ATCC and modified to create the mIMRFNPKD 5E4 cell line, which has a CRISPR-Cas mediated knockout for Pkd1 as described SLAS Discov. 2017 September; 22(8):974-984. doi: 10.1177/2472555217716056. Cells were cultured in DMEM/F12 (Sigma)+10% FBS (Sigma)+0.5% Pen/Strep (Gibco)+1% GluMax (Gibco). Control compounds used were forskolin (Calbiochem, 344282), Rapamycin (Selleckchem, S1039) and Staurosporin (Selleckchem, S1421).
The 3D mouse cyst swelling assay was performed with Pkd1^−/− mouse inner medullary collecting duct cells (mIMRFNPKD 5E4). The cyst swelling protocol that was used was described previously (SLAS Discov. 2017 September; 22(8):974-984. doi: 10.1177/2472555217716056), with further optimization.
3D culture and compound exposure. mIMRFNPKD 5E4 cells were mixed with Cyst-Gel (OcellO BV). 15 μL of cell-gel mix was pipetted to 384-well plates (Greiner μClear, Greiner Bio-One B.V.) using a CyBio Felix 96/60 robotic liquid dispenser (Analyik Jena AG). Gel-cell mix was plated at a final cell density of 2250 cells per well. After gel polymerization at 37° C. for 30 minutes, 33 μL culture medium was added to each well. Cells were grown in the gel for 96 hours, after which the cells were co-exposed with forskolin (Calbiochem, 344282) and one the following molecules: reference compound Rapamycin (SelleckChem, S1039), toxic control compound Staurosporin (SelleckChem, S1421) or test compounds.
Sample processing. After 72 hours, cultures were fixed with 4% Formaldehyde (Sigma Aldrich) and simultaneously permeabilized with 0.2% Triton-X100 (Sigma Aldrich) and stained with 0.25 μM rhodamine-phalloidin (Sigma Aldrich) and 0.1% Hoechst 33258 (Sigma Aldrich) in 1×PBS (Sigma Aldrich) for 2 days at 4° C., protected from light. After fixation and staining, plates were washed with 1×PBS, sealed with a Greiner SilverSeal (Greiner Bio-One B.V.) and stored at 4° C. prior to imaging.
Imaging and image analysis. Imaging was done using Molecular Devices ImageXpress Micro XLS (Molecular Devices) with a 4× NIKON objective. For each well around 35 images in the Z-direction were made for both channels, capturing the whole z-plane in each image. Image analysis was performed using Ominer™ software (OcellO BV). Cysts were segmented using detection of Hoechst-stained nuclei and Rhodamine-phalloidin-stained cellular f-actin. Cyst area was determined by calculating for the area in px of each object in every in-focus plain. This was averaged per well. (N represented is number of wells) Fraction of apoptotic nuclei as an indicator of toxicity was calculated as the amount of nuclei without actin signal relative to the total amount of nuclei, both as count-measurements. Statistics was done using KNIME Analytics Platform (Konstanz, Germany, http://www.knime.org/), graphs were prepared in GraphPad Prism 6 (GraphPad Software, La Jolla, Calif.).

Assay [10] deals with oligodendrocyte precursor cells (OPC) in mixed brain cultures. The experiment in a line: Oligodendrocyte precursor cells (OPC) proliferation, O4+ cell count. Type of assay: cell-based, mouse. As to conditions: 10 uM. As for the experimental part: The effect of compounds of the present disclosure was determined on oligodendrocyte precursor cells proliferation (OPC).
Cell culture. Brains of wild type mice (whole brain from 1 or 2 mouse pups) less than postnatal day (P) 2 were isolated and cultured. Briefly, following removal of the meninges, cells were dissociated with 0.25% EDTA/CMF-DMEM and 1% Trypsin (1:1), plated at a density of 75,000 cells/on 0.1 mg/ml poly-L-lysine coated borosilicate glass coverslips in 24-well plates, grown in OPC differentiation media (Oligo media) consisting of DMEM/F12 (Invitrogen 21331-020) supplemented with 1% FBS, 1% N2 Neural Supplement (Invitrogen 17502-048) and PDGF receptor alpha growth factor (Invitrogen 17502-048). Cells were fed every other day and allowed to grow for 7 days in vitro (DIV).
OPCs treatment with compounds of the present disclosure. Cells were treated with compounds of the present disclosure (50-10 μM) or vehicle (0.1% DMSO) starting at 7 DIV. Media was replaced daily with freshly made working solutions of compounds or vehicle for either 48 h (9 DIV total) or 96 h (11 DIV). The 48 h group consisted of 1 coverslip per condition. The 96 h group was treated in duplicate.
Fresh aliquots of compounds of the present disclosure were made up on the day of treatment, briefly, a 50 mM stock was thawed and used to make up fresh 50 μM working solution in Oligo Media. The fresh 50 μM working solution was diluted further in Oligo Media to make 10 μM working solution. Vehicle controls was made up in fresh Oligo Media using the appropriate amount of vehicle (DMSO). Coverslips were stored in clean 24-well plates at 4° C. until fixed-staining. Cells were imaged using Leica DM5500 fluorescent microscope with LAS-X software.
Exposure settings were maintained at the same rate across compounds of the same time-point. Cells were imaged at 20× and 40× magnifications. At least 5 images were taken per condition. Most conditions had at least 5 images that were counted. 20× images were utilized for counting DAPI (cell nuclei) and O4+ cells.
Total DAPI per image for all images was counted using ImageJ as here indicated. • Image was converted to 8 bit • Blue Channel (DAPI) was automatically thresholded by default ImageJ settings • Image noise was reduced by ImageJ>Process>Noise>Despeckle • ImageJ>Process>Binary>Watershed was used to automatically separate merged cell nuclei • ImageJ>Analyze>Analyze Particles was used to obtain final count of DAPI per image • Total number of DAPI-positive cells
Total number of O4+ cells per 20× image was manually counted using Adobe Photoshop: • All cell bodies of OPCs with underlying DAPI stain were counted as an O4+ cell • Total number of O4+ cells were recorded in Excel Spreadsheet O4+ cells in mixed brain cultures of wild type mice <P2 treated with compounds of the present disclosure or vehicle were quantified per condition (time point and concentration). The following formula was used to normalize the total cell counts within a compound as well as across compounds treated for the same duration (48h vs. 96h):
(number of O4+cell counts in Compound X/Average DAPI count for Compound X)*Total Average DAPI count across compounds of same Time Point
Values were plotted as Scatter Interval plots in Origin. Each data point represents a single image from which O4+ cell values were obtained. Data are presented as mean±S.E.
Images are at 20× magnification and represent 1-2 coverslips per group. Scale bar, 50 μm.

For assay [11], the system named is primary fibroblasts (healthy controls and PA, MMA, BCKDK, PDH, VLCAD, LS, PC, GA, VLCFA, KSS, FXN, HD). The assay is described as follows: Measurement of ROS (H2DCFDA) in primary fibroblasts. Type of assay: cell-based, human. As to conditions: Homo sapiens, procedure Example 812, Assay Condition C, read-out: Decreased ROS by at least 10%. Put shortly:
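Patient and healthy-control primary fibroblasts switched to supplemented DMEM 24 h before assay, then treated with compound (10 μM) plus H2DCFDA (22 μM) for 2 h (PA, MMA lines) or 24 h (other lines). Kinetic fluorescence at 492/527 nm over 60 min; only live cells analysed.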

The subject of assay [12] is HepG2 cells. The experiment in a line: MitoBiogenesis In-Cell ELISA (COX-I, SDH-A). Type of assay: cell-based. As to conditions: Homo sapiens, 168 h, 50 uM, 7 days, read-out: % increase in Mitochondrial Biogenesis. An excerpt:
We determined the effect of compounds of the present disclosure on the levels of two mitochondrial proteins using MitoBiogenesis™ In-Cell ELISA Kit (Abcam ab110216) according to manufacturer's instructions. The two proteins are each subunits of a different oxidative phosphorylation enzyme complex, one protein being subunit I of Complex IV (COX-1), which is mitochondrial (mt)DNA-encoded, and the other being the 70 kDa subunit of Complex II (SDH-A), which is nuclear (n)DNA-encoded. Complex IV includes several proteins which are encoded in the mitochondrion, while the proteins of Complex II are entirely encoded in the nucleus. HepG2 cells (ATCC, HB-8065) were cultured (5% CO2 at 37° C.) and plated in Poly-D-Lysine 384-Well plate (Corning, 356663) at a density of 40,000 cells/mL in 50 μL. Culture and assay media consisted of DMEM (Gibco, 11995-065) supplemented with 1% Penicillin-Streptomycin and 10% FBS (Hyclone, SV30087.03). Cells were allowed to settle for 30 min at room temperature and further incubated overnight (37° C. and 5% CO2) for adherence. Next day, 50-5 μM of the negative control Chloramphenicol (Selleck, S1677), test compounds (50-10 μM) and vehicle DMSO (0.2%) were added at the recommended volumes to the 384-well plate for 7 days without media change using a Tecan compound dispenser. All the solutions and wash buffers were prepared and dispensed according to manufacturer's volumes for a 384-well plate format. Effects of compounds on mtDNA-encoded protein expression (COX-I) and nuclear DNA-encoded mitochondrial protein expression (SDH-A) were expressed as relative signal (nm) to vehicle of a n=2 per conditions.

In assay [13] the test system is HepG2 cells. The assay is described as follows: Mitochondrial membrane potential (MITO-ID MP detection Kit). The format is cell-based. As to conditions: Homo sapiens, 168 h, 10 uM, 7 days, read-out: % decrease in Mitochondrial Membrane Potential. The method in brief: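 Cells plated at 160000 cells/mL in DMEM with 10% FBS and 1% Pen-Strep, adhered overnight at 37° C., 5% CO2. Exposure to test compounds (50-10 μM) or 0.2% DMSO for 7 days without media change; membrane potential measured with MITO-ID MP detection kit per manufacturer.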

As for `COC(=O)CCC(=O)CC(=O)SCCNC(=O)CCNC(=O)[C@H](O)C(C)(C)COC(C)=O` [Compound 141, methyl 6-[(2-[3-[(2R)-4-(acetyloxy)-2-hydroxy-3,3-dimethylbutanamido]propanamido]ethyl)sulfanyl]-4,6-dioxohexanoate], the “% increase in Proliferation” value in [1] (procedure of Example 832) is listed as not below 10%. Moreover, the inhibition at 10 µM in assay [1] (Homo sapiens, 24 h, read-out: % decrease in Thrombomodulin) is not below 10%; in [5] (Homo sapiens, HUVEC, 24 h, 10 uM, read-out: % decrease in sPGE2), not below 10%. For the same compound, the activation at 1 µM in assay [2] was not below 20%. In addition, the “% decrease in Collagen I” value in assay [3] (1 uM, procedure of Example 833) is listed as not below 10%. The “% increase in SRB” value in assay [3] (10 uM) is recorded as not below 10%. The inhibition at 1 µM in assay [3] (Homo sapiens, Fibroblast, 24 h, 1 uM, read-out: % decrease in Collagen III) was not below 10%; in [7], not below 20%. Besides, the activation at 50 µM in the assay on HepG2 cells [4] is not below 30%. For the same compound, in assay [5] (1 uM), the “% decrease in M-CSF” value is not below 10%. Further, the activation at 10 µM is not below 10% in assay [5] (Homo sapiens, HUVEC, 24 h, 10 uM, read-out: % increase in sTNFα) and not below 20% in [8]. Also, in assay [6], the “% decrease in B-cell proliferation” value is on record as not below 10%. For the same compound, the “% prevention of forskolin-induced cyst swelling” value in assay [9] (50 uM) is reported as not below 10%.
For the compound `COC(=O)/C=C/C(=O)SCCNC(=O)CCNC(=O)[C@H](O)C(C)(C)CO` [Compound 20, Methyl (R,E)-4-((2-(3-(2,4-dihydroxy-3,3-dimethylbutanamido)propanamido)ethyl)thio)-4-oxobut-2-enoate], in [10], the “% Increase OPC proliferation” value is listed as not below 25%. Further, the inhibition at 10 µM is not below 10% in assay [11] (Fibroblast, NPC1 GM22879) and not below 10% in assay [11] (FXN GM04078).
Regarding `COC(=O)CCC(=O)SCCNC(=O)CCNC(=O)[C@H](O)C(C)(C)COP1(=O)OCCO1` [Compound 1308], the activation at 50 µM with HepG2 cells [12] is more than 5%. The “% prevention of forskolin-induced cyst swelling” value in [9] (10 uM) was not below 10%. For the same compound, the inhibition at 10 µM in the assay on HepG2 cells [13] was more than 50%.
